Read-outs that look alike come from different tables or passages of the source.
Experiments:
[1] = test system: NIH-vector cells; experiment: BrdU incorporation, NIH-vector cells; format: cell-based
Excerpt: (§1) […]. […] […].

[2] = test system: HIB1B cells; experiment: BrdU incorporation, HIB1B cells; format: cell-based, mice
Excerpt: as §1

[3] = test system: 3T3-F442A preadipocytes; experiment: BrdU incorporation, 3T3-F442A preadipocytes; format: cell-based
Excerpt: as §1

[4] = test system: LS857 cells; experiment: Adipocyte differentiation of primary liposarcoma cells LS857; format: cell-based, human
Procedure: (§2) Primary liposarcoma cells were isolated from selected freshly harvested tumors as described previously (Fletcher, J. A. et al. (1991) NEJM 324:436-443) and references therein. Primary cells were plated at a density of at least 2×10^5 cells/ml and cultured in 60 mm dishes in RPMI containing 15% Cosmic Calf Serum (Hyclone) and 5 μ/ml insulin. […] The NIH-PPARγ and NIH-vector cells were derived by retroviral infection as described (Tontonoz, P. et al., (1994) supra). Differentiated cells were stained for neutral lipid with Oil Red-O (Green, H. and Kehinde, O. (1974) Cell 1:113-116). BrdU labeling was performed using the labeling kit (Boehringer Mannheim) according to the manufacturers instructions.
Liposarcomas have presumably acquired one or more genetic defects that interferes with the course of normal adipocyte development (Crozat, A. et al., (1993) Nature 363:640-644; Fletcher, J. A. et al., (1991) supra). […]
When cultured in the presence of fetal bovine serum and insulin, conditions permissive for adipocyte differentiation, all three cell lines maintain a fibroblastic morphology. […] This experiment was performed at least twice with each cell strain with quantitatively and qualitatively similar results. […]

[5] = test system: LS175 cells; experiment: Adipocyte differentiation of primary liposarcoma cells LS175; format: cell-based, human; settings: 10 μM, 7 days
[6] = test system: primary liposarcoma cells; experiment: Adipocyte differentiation of primary cells isolated from three human liposarcomas (LS857, LS175, LS707); format: cell-based; settings: 7 days (pioglitazone 10 μM)
Procedure: (§3) BrdU labeling was performed using the labeling kit (Boehringer Mannheim) according to the manufacturers instructions.
To address this possibility, primary cells isolated from three human liposarcomas were cultured in vitro (see Materials and Methods). Primary cell strains LS857 and LS175 were derived from well differentiated tumors and LS707 was derived from a myxoid tumor (see table 2). […] A primary leiomyosarcoma cell line LM203 was cultured as a control. To confirm that these cultures consisted of malignant tumor-derived cells, cytogenetic analysis was performed.

[7] = test system: LM203 lieomyosarcoma cells; experiment: Lipid accumulation in primary leiomyosarcoma cell line LM203 (control); format: cell-based, human; settings: which do not express PPARγ
[8] = test system: NIH-PPARγ cells; experiment: Adipocytic differentiation (percent lipid-containing cells) of NIH-PPARγ cells; format: cell-based
Procedure: as §3
(§4) Extent of adipocytic differentiation is indicated as the percentage of lipid-containing cells.

[9] = test system: NIH-vector cells; experiment: Adipocytic differentiation (percent lipid-containing cells) of NIH-vector cells; format: cell-based; settings: for percent lipid-containing cells: NIH-vector, confluent cells, 7 days, 1 μM pioglitazone, 50 nM LG268
Procedure: as §2
We hypothesized that simultaneous exposure of competent cells to both PPARγ and R×R-specific ligands might provide a stronger adipogenic signal than a PPARγ ligand alone. The ability of the R×R-specific ligand LG268 to promote adipocyte differentiation was investigated using NIH-3T3 fibroblasts that express PPARγ from a retroviral vector (Tontonoz, P. et al. (1994) supra). We have previously shown that wild-type NIH-3T3 cells express R×Rα but not PPARγ. […] Similar results were obtained with the preadipocyte cell lines 3T3-L1 and 3T3-F442A which express both PPARγ and R×Rα (data not shown).
as §4

[10] = test system: aP2 and adipsin; experiment: Northern analysis of adipocyte-specific markers in LS857 liposarcoma cells; format: cell-based, human; settings: Northern blotting
[11] = test system: human liposarcoma cells (LS 857); experiment: BrdU labeling and lipid staining of LS857 liposarcoma cells after induced differentiation (growth arrest); format: cell-based
[12] = test system: NIH-PPARγ cells
Procedure: BrdU incorporation experiment was performed as described in the protocol provided by the supplier (Boehringer Mannheim Biochemical). Briefly, cells grown on coverslips were labeled with 10 μM BrdU for 1 hr. Samples were washed and fixed with ethanol-glycine buffer and incubated with anti-BrdU monoclonal antibody. After incubation with anti-mouse-Ig-alkaline phosphatase followed by the substrate reaction, bound anti-BrdU antibody was visualized by light microscopy.
Cells undergoing DNA synthesis during exposure to BrdU were determined by immunohistochemical staining and considered as BrdU positive. The data represents the average of two independent experiments in which approximately 400 cells were counted per sample.

[13] = test system: NIH-PPARγ cells; settings: at the concentrations used (pioglitazone 5 μM, BRL49653 1 μM)
Procedure: 48 hr after transfection viral supernatants were collected and NIH3T3 cells were infected at 50% confluence with equal titers of recombinant virus. The supernatants were applied to the cells in DMEM containing 10% cosmic calf serum (Hyclone) and 4 μg/ml of polybrene. 24 hr after infection, cells were split and plated in DMEM containing 10% calf serum and 2 μg/ml puromycin to select infected cells. NIH-3T3 cell lines infected with empty vector or with viral expression vectors containing wild type or mutant forms of PPARγ cDNA as well as HIB1B and 3T3-F442A cell lines were cultured in DMEM containing 10% cosmic calf serum.
The same number of NIH-PPARγ, NIH-vector or HIB1B cells were cultured either in the presence (+) or absence (−) of PPARγ ligands. Cell numbers were determined at the indicated time points. The effect of ligands on cell growth is represented as percentage decrease in cell numbers in the treated plates relative to untreated control plates.

[14] = test system: HIB1B cells; experiment: Adipose cell tumors from HIB1B cells implanted in nude mice; format: in vivo; settings: for Tumor volume (mean (SD)): 0.2% mixture with powder food
Procedure: HIB1B cells (2×10^6 cells/animal) were injected subcutaneously to the upper back of twenty four male nude mice (7 weeks NCR […]). Thirteen days after injection, mice were treated with troglitazone (0.2% mixture with powder food). The development of tumor volume (measured in mm^3) was determined at days 14, 19 and 26 after troglitazone treatment compared to untreated controls. Each point represents the mean±[…] (SD) from 12 mice (except the last point, where n=11) treated or untreated with troglitazone for the indicated time intervals. To evaluate changes in tumor size, mean (SD) from 11-12 cases for each group of animal were examined to ensure an 85% chance of detecting a statistically significant difference (assuming a 2-sided sample t-test). […] Points A-C and D-F represent untreated and troglitazone-treated animals, respectively. Each point represents the mean±standard deviation from 12 mice (except the last point, where n=11). Statistically significant decreases in tumor volume were detected in implanted mice treated with troglitazone compared to untreated controls. […] The tumor volume was determined after 14, 19 and 26 days of treatment. Volumes are indicated with and without outlier points in each group of animals. A comparison of the tumor volume by two-sided 2-sample t-test after 26 days of treatment indicates p=0.0019 (without outlier); p=0.037 (with outlier). To evaluate the tumor increase over time, repeated measures analysis of variance were determined, p=0.0014 without outlier; p=0.044 with outlier.

[15] = LS857, pioglitazone withdrawn 48 hours, then BrdU 48 hours

SMILES: CCc1ccc(CCOc2ccc(CC3SC(=O)NC3=O)cc2)nc1 (stereo not shown) [pioglitazone, 5-[4-[2-(5-ethyl-2-pyridyl)-ethoxy]benzyl]-2,4-thiazolidinedione]
- change of BrdU incorporation rate ([1]; NIH-vector cells, 5 days of treatment): did not change
- BrdU positive % ([1]; NIH-vector, 5 μM pioglitazone for 5 days, BrdU pulse 1 hour): 43%
- BrdU positive % ([2]; 5 μM pioglitazone for 5 days, BrdU pulse 1 hour): 11%
- decrease of BrdU incorporation into newly synthesized DNA ([2]; after 5 days of treatment): 85%
- decrease in the BrdU incorporation rate ([3]; 3T3-F442A preadipocytes, after 5 days of treatment): 80%
- BrdU positive % ([3]; 3T3-F442A, 5 μM pioglitazone for 5 days, BrdU pulse 1 hour): 14%
- degree of morphologically recognizable differentiation ([4]; LS 857 cells, 10 μM, 7 days): 40%
- degree of morphologically recognizable differentiation [5]: 75%
- induction of differentiation (lipid accumulation, adipocyte morphology) [6]: readily accumulated lipid and adopted a morphology characteristic of mature cultured adipocytes
- lipid accumulation [7]: No lipid accumulation
- percent lipid-containing cells [8]: 60-70%
- percent lipid-containing cells [9]: 0%
- induction of the mRNAs encoding aP2 and adipsin [10]: induction of two markers of terminal adipocyte differentiation
- cells containing lipid that stain positive for BrdU ([11]; LS857, of those cells containing lipid): 2%
- cells containing visible cytoplasmic lipid [11, 15]: 35%
- cells stained positive for BrdU incorporation [11, 15]: 28%
- BrdU positive % [12]: 9%

SMILES: Cc1cc2c(cc1C1(c3ccc(C(=O)O)cn3)CC1)C(C)(C)CCC2(C)C [LG268]
- adipocyte differentiation of LS857 cells ([4]; 50 nM LG268, 10 μM pioglitazone, alone or simultaneously): significant degree of adipocyte differentiation
- percent lipid-containing cells ([8]; NIH-PPARγ, confluent cells, 7 days, 1 μM pioglitazone, 50 nM LG268): 50-65%
- stimulation of adipocyte differentiation ([8]; confluent NIH-PPARγ cells, 7 days, 50 nM LG268, 1 μM pioglitazone): significant stimulation of adipocyte differentiation
- adipogenic effect on NIH-vector cells ([9]; NIH-vector cells): no effect
- percent lipid-containing cells [9]: 0%

SMILES: CN(CCOc1ccc(CC2SC(=O)NC2=O)cc1)c1ccccn1 (stereo not shown) [BRL49653, rosiglitiazone]
- cytotoxic effects [13]: No obvious cytotoxic effects

SMILES: Cc1c(C)c2c(c(C)c1O)CCC(C)(COc1ccc(CC3SC(=O)NC3=O)cc1)O2 (stereo not shown) [troglitazone, 5-[[4-[(3,4-dihydro-6-hydroxy-2,5,7,8-tetramethyl-2H-1-benzopyran-2-yl)methoxy]phenyl]methyl]-2,4-thiazolidinedione]
- induction of differentiation (lipid accumulation, adipocyte morphology) [6]: Induction of differentiation was also observed
- size of adipose tumors in nude mice compared to untreated controls ([14]; 14, 19 and 26 days of treatment): effective in reducing the size of adipose tumors
- Tumor volume (mean (SD)) ([14]; 14 days of treatment, w outlier): 403(182) mm^3
- Tumor volume (mean (SD)) ([14]; 14 days of treatment, w/o outlier): 361(110) mm^3
- Tumor volume (mean (SD)) ([14]; 19 days of treatment, w outlier): 990(665) mm^3
- Tumor volume (mean (SD)) ([14]; 19 days of treatment, w/o outlier): 830(389) mm^3
- Tumor volume (mean (SD)) ([14]; 26 days of treatment, w outlier): 2601(2270) mm^3
- Tumor volume (mean (SD)) ([14]; 26 days of treatment, w/o outlier): 2032(1179) mm^3
